Experimental data taken from article PMC8151276, “An Integrated Approach toward NanoBRET Tracers for Analysis of GPCR Ligand Engagement” (Molecules, 2021).

Key:
HTR5A = biological target: T1, HTR5A (Homo sapiens, UniProt P47898); assay: NanoBRET screen HiBiT-HTR5A in HEK293; type: binding
T1 construct: purchased Promega (in-house HiBiT-GPCR construct library, NanoBRET)
Protocol: (§1) Each tracer candidate was screened across the entire library of HiBiT-GPCR constructs using NanoBRET as the detection modality. As depicted in Figure 4A, the specificity of interactions was evaluated through decrease in BRET due to competitive displacement of a bound tracer by excess parental compound. Each tracer was analyzed for binding to each HiBiT-GPCR fusion in the absence and in the presence of competing parental compound. Briefly, HEK293 cells were transfected with HiBiT-GPCR constructs diluted into promoterless DNA to reduce expression and maximize translocation to the cell surface. Each tracer candidate was then screened at concentrations of 1 μM and 0.1 μM across cells expressing these fusions. Cells were treated for 1.5 h with tracer either alone or in the presence of 20 μM competing parental compound (i.e., control). BRET was measured upon addition of purified LgBiT and subsequent complementation with HiBiT genetically fused to a GPCR. The specificity of interactions was assessed through a decrease in BRET signal due to competitive displacement of the bound tracer. To further gauge the robustness of these interactions, the fold response over the control (i.e., BRETtracer/BRETcontrol) was calculated. We chose a 1.5-fold response, which translates to ≥7-fold signal over noise as the minimal threshold required to score an interaction as positive. […]. Below we highlight the screening results obtained for our exemplary fluorescent tracers based on Clozapine, Amitriptyline and AZD1283.
(§2) HiBiT-GPCR DNA constructs were diluted in 10 mM Tris pH 8 to a final concentration of 0.01 μg/μL, arrayed in 96-well plates and stored at −20 °C. For transfection, HEK293 cells were suspended in Opti-MEM (without phenol red) supplemented with 2% fetal bovine serum (Seradigm) and 100 units/mL penicillin–streptomycin (Gibco) at a final concentration of 220,000 cells/mL and dispensed into white 96-well plates at 90 μL/well. Subsequent transfections and screens were carried using an Agilent Bravo Automated Liquid Handling Platform. First, the 96-well HiBiT DNA arrays were diluted 25-fold in Opti-MEM (without serum or phenol red) to a final concentration of 0.0004 μg/μL and 20 μL of the diluted DNAs were transferred into new 96-well plates. Next, promoterless carrier DNA (1 μg/μL) was diluted 25-fold (0.04 μg/μL) and then dispensed into the diluted arrays at 20 μL/well. Following brief mixing, Viafect transfection reagent (Promega) diluted 16-fold into Opti-MEM was dispensed into the plates at 40 μL/well. After mixing by pipetting, plates were incubated for 10 min on the pipetting station deck. The DNA-transfection reagent complexes were then added to plates containing cells. To facilitate the screen, 10 μL of DNA-transfection reagent complexes were added in duplicates to the top 4 and bottom 4 rows, resulting in two identical 48-well arrays per plate. Plates with transfected cells were incubated for 18–20 h at 37 °C/5% CO2. A screen of each tracer across the entire library using two different concentrations requires duplicate plates of transfected cells. Depending on the number of tracers being screened, transfections can be scaled up using the same ratios. The next day, for each tracer, four 20× screening solutions in tracer dilution buffer (Promega) were prepared: two duplicates at final concentration of 20 μM and two duplicates at a final concentration of 2 μM. A competing unmodified compound was added to one of each duplicate at a final concentration of 400 μM. The four resulting solutions were diluted 4-fold in Opti-MEM without serum or phenol red to generate 5× solutions (5 µM and 0.5 µM tracer +/− 100 μM competing compound). To screen the library, a BioTek MultiFlo FX liquid dispenser was used to dispense 22.5 µL of tracer solution to the top 4 rows and 22.5 µL tracer + competing compound solution to the 4 bottom rows. Plates were briefly mixed on an orbital shaker and incubated for 1.5 h at room temperature. […]

EDNRA = biological target: T2, EDNRA (Homo sapiens, UniProt P25101); assay: NanoBRET screen HiBiT-EDNRA in HEK293; type: binding
T2 construct: purchased Promega (in-house HiBiT-GPCR construct library, NanoBRET)
T2 sequence (P25101 21-427): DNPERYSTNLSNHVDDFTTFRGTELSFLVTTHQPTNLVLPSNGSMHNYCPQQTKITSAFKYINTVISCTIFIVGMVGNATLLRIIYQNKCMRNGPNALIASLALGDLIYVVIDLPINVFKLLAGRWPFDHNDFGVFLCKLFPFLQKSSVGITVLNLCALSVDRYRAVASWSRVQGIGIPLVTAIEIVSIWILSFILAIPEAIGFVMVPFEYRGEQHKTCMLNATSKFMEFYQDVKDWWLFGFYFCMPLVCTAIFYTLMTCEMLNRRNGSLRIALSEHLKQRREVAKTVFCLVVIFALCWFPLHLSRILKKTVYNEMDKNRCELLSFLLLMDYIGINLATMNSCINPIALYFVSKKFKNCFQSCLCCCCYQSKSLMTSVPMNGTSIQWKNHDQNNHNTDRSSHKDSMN
Protocol: as §1, §2

T1 sequence (P47898 whole entry): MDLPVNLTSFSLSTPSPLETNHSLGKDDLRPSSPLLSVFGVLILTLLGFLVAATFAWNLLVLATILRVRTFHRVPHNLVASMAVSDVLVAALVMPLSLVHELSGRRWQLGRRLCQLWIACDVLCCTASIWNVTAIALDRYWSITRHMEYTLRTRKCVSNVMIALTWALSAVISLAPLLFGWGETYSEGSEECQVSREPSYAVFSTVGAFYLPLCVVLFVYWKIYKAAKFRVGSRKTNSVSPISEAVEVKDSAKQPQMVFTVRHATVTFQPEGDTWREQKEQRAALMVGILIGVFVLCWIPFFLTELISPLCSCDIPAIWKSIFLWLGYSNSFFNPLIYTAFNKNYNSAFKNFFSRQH

Q: Which results are given for `CCCn1c(=O)c2[nH]c(-c3ccc(OCC(=O)NCCNC(=O)CCOCCNC(=O)c4ccc(CNC(=O)CCc5ccc6n5[B-](F)(F)[N+]5=C(c7ccc[nH]7)C=CC5=C6)cc4)cc3)nc2n(CCC)c1=O` [XAC-3-NB590]?
A: NanoBRET Fold Response (HTR5A; HTR5A, tracer 0.1μM): 1.12; NanoBRET Fold Response (HTR5A; HTR5A, tracer 1μM): 0.97; NanoBRET Fold Response (EDNRA; EDNRA, tracer 0.1μM): 1.12; NanoBRET Fold Response (EDNRA; EDNRA, tracer 1μM): 1.15

Q: Which results are given for `CN(CCC=C1c2ccccc2CCc2ccccc21)C(=O)CCOCCOCCOCCOCCNC(=O)CCc1ccc2n1[B-](F)(F)[N+]1=C(c3ccc[nH]3)C=CC1=C2` [Amitriptyline-e-2-NB590]?
A: NanoBRET Fold Response (HTR5A; tracer at 1μM): 1.05; NanoBRET Fold Response (EDNRA; tracer at 1μM): 1.05

Q: `COc1ccc2c(n1)c(CCNC(C)=O)cn2CCNC(=O)CCc1ccc2n1[B-](F)(F)[N+]1=C(c3ccc[nH]3)C=CC1=C2` [Azamelatonin-1-NB590] was tested. Which “NanoBRET Fold Response” value (HTR5A; 0.1μM tracer) did it give?
A: 0.89

Q: And the “NanoBRET Fold Response” value (HTR5A; 1μM tracer)?
A: 0.89

Q: What about the “NanoBRET Fold Response” value (EDNRA; 0.1μM tracer) of the same compound?
A: 0.91

Q: And the “NanoBRET Fold Response” value (EDNRA; 1μM tracer)?
A: 0.91
